Measurements taken from US7223733B2, “Modulation of TRIP-Br function and method of treating proliferative disorders” (National University of Singapore, priority 2004, dated 2007).
Where no end group is shown, it is not given here.

Tests used:
Format in all cases: cell-based, human
[1] = test system: minimal luciferase reporter (pGL3-TATA-Luc); assay: TATA-containing minimal luciferase reporter assay in U2OS cells; conditions: 50 μM, 5 h
Experimental: DNA Transfection and Sequential β-Galactosidase/Luciferase Assay. For luciferase reporter assays, U2OS cells were cultured in 6-well dishes and transfected 24 h later with various reporter plasmids by the calcium precipitation method as previously described (Martin, K., et al. Nature 375, 691-694 (1995)). 24 h following precipitate removal, cells were exposed for 5 h to either vehicle (0.5% DMSO) or 50 μM of decoy peptide, prior to harvesting. Cells were scraped in 200 μl of lysis buffer and a single 10 μl aliquot of lysate was immediately used for sequential measurement of β-galactosidase and luciferase activity using the Dual Light System (Tropix). For protein overexpression experiments, U2OS cells were cultured in 6-well plates at a density of 1×10^5 cells/well and transfected 24 h later with Superfect reagent (QIAGEN).
(§1) FIG. 3: Analysis of E2F-responsive transcription in U2OS cells in response to decoy peptide treatment. (A) β-galactosidase/Luciferase assay of U2OS cells co-transfected with 0.1 μg of pCMV/β-galactosidase and 7.5 μg of the indicated luciferase reporter plasmids. Promoter activity of vehicle-treated samples was normalized to 100% and the activities of the peptide-treated samples were expressed relative to the vehicle-treated control. Values represent the average +/− standard deviation of at least two independent experiments; (B) Semi-quantitative RT-PCR analysis on total RNA for dhfr, cyclin-E, cyclin A2, PCNA, DNA Pola and cdc2 expression in U2OS cells exposed for 16 h to either vehicle (0.5% DMSO) or 50 μM of the indicated decoy peptides. H-actin was included as an internal control.
The PHD-bromodomain-interacting function of TRIP-Br proteins co-regulate E2F-dependent transcriptional activity in vivo. […] U2OS cells were chosen for this assay because they express functional E2F-1, DP-1, Rb and detectable levels of endogenous TRIP-Br1 (as assessed by Western blot analysis using a rabbit polyclonal anti-TRIP-Br1 antibody (Hsu, S. I. H., et al. EMBO J 20, 2273-2285 (2001)); data not shown). […]

[2] = test system: E2F-regulated genes; assay: Semi-quantitative RT-PCR of E2F-regulated genes in U2OS cells; conditions: 50 μM, 16 h
Experimental: Semi-quantitative RT-PCR. Total RNA was isolated from U2OS cells or U2OS-ER-E2F-1 cells (grown with or without 1.0 μM OHT and/or 10 μg/ml cycloheximide) using the TRIZOL® Reagent (Life Technologies). Total RNA (4 μg) was reverse transcribed using oligo-dT and M-MLV reverse transcriptase in a total reaction volume of 20 μl. Polymerase Chain Reactions (PCR) were carried out on 3 μl cDNA samples in the presence of […] deoxyribonucleotide triphosphates (dNTPs) and 40 μM of specific primer pairs in a total reaction volume of 50 μ. The cycling profile for PCR was as follow: 30 cycles of denaturation (94° C., 30 sec), annealing (51° C., 30 sec) and extension (72° C., 2 min), with a 2-minute initial denaturation step at 94° C. and a 10-minute terminal polishing step at 72° C. Sequences of gene-specific primers are available upon request. PCR amplification products were analyzed by agarose gel electrophoresis.
as §1

[3] = test system: U2OS cells; assay: BrdU incorporation colorimetric ELISA in U2OS cells; conditions: for DNA synthesis activity (BrdU incorporation): U2OS, 50 μM, between 24 h and 48 h post-treatment; for ability to incorporate BrdU with increasing concentrations: U2OS, 5, 10, 20 or 50 μM, 48 h
Experimental: BrdU assay. U2OS cells grown in 96-well plates were exposed to either vehicle or decoy peptides. Bromodeoxyuridine (BrdU) incorporation was monitored with a colorimetric ELISA assay using a cell proliferation kit according to manufacturer's recommendations (Boehringer Mannheim).
FIG. 4: Time-dependent and dose-dependent anti-proliferative effects of the decoy peptides. (A) Time-dependent anti-proliferative effects of the decoy peptides. U2OS cells, exposed to either vehicle (0.5% DMSO) or 50 μM decoy peptides for either 24 or 48 h, were assayed for BrdU incorporation with a colorimetric ELISA assay. Values represent the average +/− standard deviation of two independent experiments; (B) Dose-dependent anti-proliferative effects of the decoy peptides. U2OS cells, exposed to 5, 10, 20 or 50 μM of *SCR (solid line and square), *Br1 (dashed line and triangle) or *Br2 (dashed line and circle) for 48 h, were assayed for BrdU incorporation with a colorimetric ELISA assay. Values represent the average +/− standard deviation of at least two independent experiments; (C) Cell proliferation analysis. Left panel: At 0, 48 and 72 h post decoy peptide treatment, total cell number was determined electronically using a Coulter® counter. Right panel: At 72 h post-treatment, cells were harvested and stained with trypan blue for viable cell count analysis.

[4] = test system: cyclins and Cdks; assay: Cell cycle protein expression profile of U2OS cells released from nocodazole arrest (Western blot); conditions: U2OS released from nocodazole block; for timing of cyclin E protein accumulation: 20 μM; for absolute levels of cyclin E protein: up to 24 h post-release
Experimental: Cell synchronization and cell cycle progression analyses. U2OS cells in 6-well dishes were subjected to nocodazole treatment (75 ng/ml) for 22 h. Thereafter, the nocodazole-arrested cultures were released by washing with 1×PBS and grown in DMEM plus 10% FBS containing either vehicle (0.5% DMSO) or 20 μM decoy peptides. Cells were harvested at 4-h intervals for standard Western blot analyses. For the analysis of Geminin protein profile, mock- or cyclin E/Cdk2-transfected U2OS cells were exposed to nocodazole (75 ng/ml) at 3 h post-transfection for 22 h. Denaturing SDS-PAGE and western blotting. Proteins from whole cell lysate and IP complexes were separated using standard denaturing polyacrylamide gel electrophoresis as described previously (Hsu, S. I. H., et al. EMBO J 20, 2273-2285 (2001)). FIG. 7: Cell cycle protein expression profile and protein decay analysis. (A) Protein expression profile of U2OS cells released from nocodazole arrest in the absence or presence of decoy peptide treatment. Protein expression of various cyclins and Cdks was assessed by Western blotting using whole cell lysates from synchronized U2OS cells at 4, 8, 12, 16, 20 and 24 h after release. Coomassie-stained proteins served as loading controls; (B) U2OS cells transfected with vector backbone (vehicle) or pRc/cyclin E and pCMV/Cdk2 (1 μg each), were arrested at the G2/M boundary by exposure to nocodazole (75 ng/ml) and then released to re-enter the cell cycle. Protein expression of cyclin E and Geminin was assessed using whole cell lysates from synchronized U2OS cells at 0, 4, 8, 12, 16 and 20 h after release; (C) Protein decay analysis of Geminin expression in the absence or presence of cyclin E/Cdk2 over-expression (left panel) or in the absence or presence of decoy peptide treatment (right panel) by Western blotting (WB). Coomassie stained proteins served as the loading control (C).

Sequence | transcriptional activity of the minimal reporter [1] | expression profile of the genes under investigation relative to vehicle ([2]; six E2F-regulated genes) | DNA synthesis activity (BrdU incorporation) [3] | timing of cyclin E protein accumulation [4] | cdc2 mRNA transcript level [2] | transcriptional activity of PCNA gene [2] | transcriptional activity of cyclin A2 gene [2] | transcriptional activity of cyclin-E gene [2] | ability to incorporate BrdU with increasing concentrations [3] | absolute levels of cyclin E protein [4] | DNA Polα mRNA expression level [2] | dhfr mRNA expression level [2]
ERQIKIWFQNRRMKWKKGLDEDGLLLFCEGDTIAD (Peptide containing penetratin sequence from Drosophila and random peptide sequence) [*SCR, reference compound] | slight activation | negligible effects | basal DNA synthesis rate similar to that of the vehicle-treated control cells | accumulated during mid-to-late G1 between 8 h and 16 h post-release |  |  |  |  |  |  |  | 
ERQIKIWFQNRRMKWKKATGCLLDDGLEGLFEDID (ERQIKIWFQNRRMKWKKATGCLLDDGLEGLFEDID-NH2) [*Br1] | slight activation |  | substantially reduced DNA synthesis activity | premature accumulation of cyclin E beginning in early G1 | significant down regulation | unaffected | unaffected | unaffected | progressively reduced ability to incorporate BrdU | dramatically up-regulated and sustained at high levels |  | 
ERQIKIWFQNRRMKWKKTGFLTDLTLDDILFADID (ERQIKIWFQNRRMKWKKTGFLTDLTLDDILFADID-NH2) [*Br2] | did not alter the transcriptional activity of the minimal reporter significantly |  | substantially reduced DNA synthesis activity | premature accumulation of cyclin E beginning in early G1 | significant down regulation | unaffected | unaffected | unaffected | progressively reduced ability to incorporate BrdU | dramatically up-regulated and sustained at high levels | down-regulated | down-regulated
